From the supplement of paper PMC11424490

Experiments:
NCI-H2122 [1] = test: fitted bottom plateau of viability curve, % of DMSO control; higher = less maximal inhibition; extreme values may be limits of the assay
Method: (§1)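 CellTiter-Glo proliferation assay in KRAS G12C mutant NCI-H2122 (72 h), SW837 (144 h) and NCI-H358 cells in 384-well plates. Monotherapy dose response was fitted with a four-parameter curve after normalisation to DMSO controls (% of control, PoC). IC50 is the relative IC50, averaged over replicates. Bottom is the fitted lower plateau in %PoC; Max.Conc. is the top dose tested.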

SW837 [2] = test: as above
Method: as §1

NCI-H2122 [3] = test: relative IC50 of cell viability (CellTiter-Glo); higher = less potent
Method: as §1

NCI-H2122 [4] = test: combination cScore with sotorasib (Bliss gap around IC50) (%PoC); higher = stronger additive effect
In short: (§2)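 Scores represent the average Bliss-independence gap, expected minus measured viability, in a field surrounding both monotherapy IC50s, with the top concentrations used when no IC50 was reached. Cells (NCI-H2122, NCI-H358, SW837) were seeded at 500 or 800 per well in 384-well plates, dosed in matrices at 24 h and grown for 72 h, with SW837 grown for 144 h. Viability was measured by CellTiter-Glo, normalised to vehicle wells and fitted with four-parameter curves.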

SW837 [5] = test: as above
In short: as §2

Row | relative IC50 of cell viability (NCI-H2122 [3]) [nM] | Structure (SMILES) | fitted bottom plateau of viability curve (NCI-H2122 [1]) [%] | fitted bottom plateau of viability curve (SW837 [2]) [%] | combination cScore with sotorasib (NCI-H2122 [4]) | combination cScore with sotorasib (SW837 [5])
1 | 1940 | Nc1ncn([C@@H]2O[C@H](CO)[C@@H](O)[C@H]2O)c(=O)n1 [Azacitidine] (top concentration tested 9999.8 nM) | 14.4 | 93 | – | –
2 | 6060 | COc1cc(OC2CCN(C)CC2)ccc1Nc1ncc2c(n1)n(C1CCCC1)c(=O)n2C [AZ3146] (top concentration tested 10000 nM) | 39.4 | 57.4 | – | –
3 | 21.4 | Nc1nc2[nH]cc(CCc3ccc(C(=O)N[C@@H](CCC(=O)O)C(=O)O)cc3)c2c(=O)[nH]1 [Pemetrexed] (top concentration tested 10000 nM) | 43.3 | 90.7 | – | –
4 | 8090 | CC1(C)CCC(CN2CCN(c3ccc(C(=O)NS(=O)(=O)c4ccc(NCC5CCOCC5)c([N+](=O)[O-])c4)c(Oc4cnc5[nH]ccc5c4)c3)CC2)=C(c2ccc(Cl)cc2)C1 [ABT-199] (top concentration tested 10000 nM) | 65.6 | 95.3 | – | –
5 | 3120 | CO[C@H]1/C=C/C[C@H](C)[C@@H](C)S(=O)(=O)NC(=O)c2ccc3c(c2)N(C[C@@H]2CC[C@H]21)C[C@@]1(CCCc2cc(Cl)ccc21)CO3 [AMG176] (top concentration tested 10000 nM) | 45.9 | 96.3 | – | –
6 | 9650 | COc1ccc2nc3ccc(OC)cc3c(SCCCN)c2c1 (top concentration tested 10000 nM) | 59 | 84.2 | – | –
7 | 123 | COc1cc(OC)c(/C=C/S(=O)(=O)Cc2ccc(OC)c(NCC(=O)O)c2)c(OC)c1 [Rigosertib] (top concentration tested 1000.1 nM) | 5.86 | 58.2 | – | –
8 | 200 | Cc1ccc(NC(=O)c2ccnc(C(F)(F)F)c2)cc1-c1cc(OCCO)nc(N2CCOCC2)c1 [LXH-254] (top concentration tested 1000 nM) | 63.6 | 94.2 | – | –
9 | 126 | COc1ncc(-c2nc3c(n2C(C)C)[C@H](c2ccc(Cl)cc2)N(c2cc(Cl)cn(C)c2=O)C3=O)c(OC)n1 [HDM-201] (top concentration tested 9999.9 nM) | 25.1 | 84.1 | – | –
10 | 2140 | CS(=O)(=O)c1ccc(-c2cnc(N)c(C(=O)Nc3ccccc3)n2)cc1 [VE-821] (top concentration tested 10000 nM) | 34.2 | 82.4 | – | –
11 | 642 | CC(C)NC[C@@H](C(=O)N1CCN(c2ncnc3c2[C@H](C)C[C@H]3O)CC1)c1ccc(Cl)cc1 [Ipatasertib] (top concentration tested 10000 nM) | 57.9 | 85.8 | – | –
12 | 776 | CC(C)C[C@@H](C(=O)N[C@H](C(=O)OC1CCCC1)c1ccccc1)[C@H](O)C(=O)NO [Tosedostat] (top concentration tested 9999.9 nM) | 51.2 | 92.2 | – | –
13 | 1230 | C[C@@H](Oc1cc(-c2cnn(C3CCNCC3)c2)cnc1N)c1c(Cl)ccc(F)c1Cl (top concentration tested 10000 nM) | 4.25 | 31.9 | – | –
14 | 2440 | O=C(CCCCCCC(=O)Nc1ccccc1)NO [Vorinostat] (top concentration tested 10000 nM) | 10.7 | 25 | – | –
15 | 945 | O=c1[nH]cc(F)c(=O)[nH]1 [Fluorouracil (5-FU)] (top concentration tested 1000.2 nM) | 64.6 | 96.6 | – | –
16 | 8590 | COc1cc2c(NC3CCN(C(C)C)CC3)nc(C3CCCCC3)nc2cc1OCCCN1CCCC1 [UNC0638] (top concentration tested 10000 nM) | 46.7 | 88.9 | – | –
17 | 1100 | Cc1ncc(NC(=O)c2cccc(C(F)(F)F)c2)cc1-c1cnc(OC2CCOCC2)c(N2CCOCC2)c1 [RAF-709] (top concentration tested 10000 nM) | 11.1 | 87.9 | – | –
18 | 1360 | Nc1ncn([C@H]2C[C@H](O)[C@@H](CO)O2)c(=O)n1 [Decitabine] (top concentration tested 10000 nM) | 57.7 | 54 | – | –
19 | 3430 | O=c1cc(N2CCOCC2)oc2c(-c3cccc4c3sc3ccccc34)cccc12 [NU-7441] (top concentration tested 10000 nM) | 42.8 | 70.7 | – | –
20 | – | O=C(O)C(=O)O.[NH-][C@@H]1CCCC[C@H]1[NH-].[Pt+2] [Oxaliplatin] + C=CC(=O)N1CCN(c2nc(=O)n(-c3c(C)ccnc3C(C)C)c3nc(-c4c(O)cccc4F)c(F)cc23)[C@@H](C)C1 [sotorasib] | – | – | 13.8 | 3.16
21 | – | Cc1ncc(NC(=O)c2cccc(C(F)(F)F)c2)cc1-c1cnc(OC2CCOCC2)c(N2CCOCC2)c1 [RAF-709] + C=CC(=O)N1CCN(c2nc(=O)n(-c3c(C)ccnc3C(C)C)c3nc(-c4c(O)cccc4F)c(F)cc23)[C@@H](C)C1 [sotorasib] | – | – | 3.48 | 5.38
22 | – | CO[C@H]1C[C@@H]2CC[C@@H](C)[C@@](O)(O2)C(=O)C(=O)N2CCCC[C@H]2C(=O)O[C@H]([C@H](C)C[C@@H]2CC[C@@H](O)[C@H](OC)C2)CC(=O)[C@H](C)/C=C(\C)[C@@H](O)[C@@H](OC)C(=O)[C@H](C)C[C@H](C)/C=C/C=C/C=C/1C [Rapamycin] + C=CC(=O)N1CCN(c2nc(=O)n(-c3c(C)ccnc3C(C)C)c3nc(-c4c(O)cccc4F)c(F)cc23)[C@@H](C)C1 [sotorasib] | – | – | 13.4 | 10.2
23 | – | CO[C@H]1CC[C@H](n2c([C@@H]3CCCC(=O)N3c3ccc(F)c(F)c3)nc3cc(-c4c(C)noc4C)ccc32)CC1 [CCS1477] + C=CC(=O)N1CCN(c2nc(=O)n(-c3c(C)ccnc3C(C)C)c3nc(-c4c(O)cccc4F)c(F)cc23)[C@@H](C)C1 [sotorasib] | – | – | 13.8 | 11.8
24 | – | CS(=O)(=O)c1ccc(C(=O)Nc2ccc(Cl)c(-c3ccccn3)c2)c(Cl)c1 [Vismodegib] + C=CC(=O)N1CCN(c2nc(=O)n(-c3c(C)ccnc3C(C)C)c3nc(-c4c(O)cccc4F)c(F)cc23)[C@@H](C)C1 [sotorasib] | – | – | 12.1 | 9.42

Row | Structure (SMILES) | relative IC50 of cell viability (NCI-H2122 [3]) [nM] | fitted bottom plateau of viability curve (NCI-H2122 [1]) [%] | fitted bottom plateau of viability curve (SW837 [2]) [%] | combination cScore with sotorasib (NCI-H2122 [4]) | combination cScore with sotorasib (SW837 [5])
25 | N[C@@H](Cc1ccc(N(CCCl)CCCl)cc1)C(=O)O [Melphalan] (top concentration tested 10000 nM) | 2140 | 46.6 | 52.1 | – | –
